Counter-ions that a name gives are not always drawn.
Key:
[1] = series exploring certain imidazolium compounds; cited from earlier work
dog model for diabetes = assay: Dog model for diabetes, ventricular elasticity; assay type: in vivo
Text: (§1) Cardiovascular risk correlates more closely with the systolic and the pulse pressure than with the diastolic pressure. In diabetic patients, the cardiovascular risk profile of diabetic patients is strongly correlated to duration of diabetes, glycemic control and blood pressure. Structural matrix proteins contribute to the function of vessels and the heart, and changes in the physical behavior of cardiovascular walls are believed to be important determinants of circulatory function. In elderly individuals, the loss of compliance in the aorta leads to isolated systolic hypertension, which in turn expands the arterial wall and thereby diminishes the dynamic range of elasticity.

[2] = system: collagen in cardiovascular tissues; assay: Mass of collagen in cardiovascular tissues after treatment; settings: in vivo
Text: as §1

TGFbeta = assay: In situ hybridization studies, TGFbeta
Text: as §1

Type IV collagen = assay: In situ hybridization studies, Type IV collagen
Text: as §1

[3] = system: elderly patients with pulse pressures greater than 60 mm Hg; assay: Phase IIa clinical trial; assay type: in vivo, human
Text: When the heart pumps blood into the vascular system, the ability of the arteries to expand helps to push blood through the body. When arteries become stiff, as they do in the natural process of aging, the ability of the arteries to expand is diminished and also has consequences for the heart. The heart has to work harder to pump the blood into the stiff arteries, and eventually hypertrophies (enlarges in size) to accomplish this. A hypertrophied heart is an inefficient pump, and is one of the disorders that leads to congestive heart failure. […] The potential clinical benefit of this is to lessen the effort that the heart must expend to push blood throughout the body. The effect is also believed to contribute to preventing hypertrophy and subsequent inefficiency of the heart, which inefficiency would contribute to congestive heart failure.
Atherosclerosis is a disease that involves deposition of blood lipids in plaque in the arteries throughout the body. In coronary arteries, accumulation of plaque progressively leads to reduced coronary flow, with occlusion of the arteries causing focal death of cardiac tissue (myocardial infarction, heart attack). If the amount of tissue that dies is large enough, death ensures. […] Reducing local deposits of plaque should eventually lessen the risk of myocardial infarction and death due to heart attacks.
Pulse pressure is the difference between systolic and diastolic blood pressure. In a young human, systolic pressure is typically 120 mm Hg and diastolic pressure is 80 mm Hg, resulting in a pulse pressure of 40 mm Hg. With age, in many individuals pulse pressure increases, largely due to the increase in systolic pressure that results from stiff vessel disease. In individuals with pulse pressure greater than 60 mm Hg there is an increased risk of death from cardiovascular morbidities. […] This decrease in pulse pressure was believed to be due primarily to the effect of the agent on lowering the systolic blood pressure.

[4] = system: rodents, canines and primates; assay: In vivo studies of vascular stiffening
Text: as §1

Rats = assay: Rat myocardial infarct model (coronary artery ligation), histological examination of hearts; assay type: in vivo; settings: daily intraperitoneal 10 mg/kg for 30 days before and 14 days after ligation; placebo 0.16±0.04 g; p=0.04
Experimental: Rats received a daily intraperitoneal dose of 10 mg/kg 3-[2-phenyl-2-oxoethyl]-4,5-dimethyl-thiazolium salt (compound A) (n=14) or placebo (n=15) for 30 days. The animals then underwent a thoracotomy and the left anterior descending coronary artery ligated. The chest was then closed and the animals allowed to recover for 14 days while continuing to be treated with compound A or placebo. The animals were then sacrificed and the hearts removed for histological examination. The weight of the infarcted tissue was 0.16±0.04 g for the placebo treated animals compared to 0.11±0.05 g for the compound A treated animals (p=0.04).

Row | Compound | glucose lowering effect [1] | end diastolic pressure, indicator of ventricular elasticity (dog model for diabetes) | end diastolic volume, indicator of ventricular elasticity (dog model for diabetes) | mass of collagen in cardiovascular tissues [2] | expression of TGFbeta (TGFbeta) | expression of Type IV collagen (Type IV collagen) | stiffness of arteries, as measured by the ratio of stroke volume (ml) to pulse pressure (mm Hg) ([3]; Phase IIa clinical trial) | amount of circulating triglycerides (lipids) ([3]; Phase IIa trial) | pulse pressure ([3]; Phase IIa trial, elderly patients with pulse pressures greater than 60 mm Hg, statistically significant) | vascular stiffening [4] | weight of the infarcted tissue (Rats) [g]
1 | Cc1ccc(C(=O)C[n+]2ccccc2)cc1.[Cl-] [1-[2-(4-methylphenyl)-2-oxoethyl]-pyridinium chloride] | inactive |  |  |  |  |  |  |  |  |  | 
2 | Cc1sc[n+](CC(=O)c2ccccc2)c1C [compound A, 3-[2-phenyl-2-oxoethyl]-4,5-dimethyl-thiazolium salt] |  | returned to a value at about the mid-point between the disease impaired value and the value for control dogs | returned to a value at about the mid-point between the disease impaired value and the value for control dogs | reduction in the mass of collagen | reduces the expression | reduces the expression | showed an ability to reverse the stiffness of arteries | increased the amount of circulating triglycerides | reduced pulse pressure | substantially ameliorating vascular stiffening | 0.11 ± 0.05
